Source: ChEMBL document CHEMBL1201862, “PubChem BioAssay data set” (2004)
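Tested at 5 concentrations; 48 h exposure; 96-well plates; endpoints linearly interpolated, else capped at highest concentration. GI50: concentration for 50% inhibition of growth.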 The source made the active and inactive calls. Cut-off read from the data, not from the text of the source: active = GI50 up to about 1.1 µM and inactive = higher.

Columns and labels:
Assay in all cases: NCI anticancer screen, dose series, 48 h
A549 = test system: A549
SN12C = test system: SN12C
KM12 = test system: KM12
MDA-MB-435 = test system: MDA-MB-435
MCF7 = test system: MCF7
UACC-257 = test system: UACC-257
SK-MEL-2 = test system: SK-MEL-2
MDA-MB-231 = test system: MDA-MB-231
CAKI-1 = test system: CAKI-1
PC-3 = test system: PC-3
HOP-92 = test system: HOP-92
MDA-N = test system: MDA-N
NCI/ADR-RES = test system: NCI/ADR-RES
HT-29 = test system: HT-29
RXF 393 = test system: RXF 393
CCRF-CEM = test system: CCRF-CEM
786-0 = test system: 786-0
EKVX = test system: EKVX
T47D = test system: T47D

Row | SMILES | GI50 (A549) | GI50 (SN12C) | GI50 (KM12) | GI50 (MDA-MB-435) | GI50 (MCF7) | GI50 (UACC-257) | GI50 (SK-MEL-2) | GI50 (MDA-MB-231) | GI50 (CAKI-1) | GI50 (PC-3) | GI50 (HOP-92) | GI50 (MDA-N) | GI50 (NCI/ADR-RES) | GI50 (HT-29) | GI50 (RXF 393) | GI50 (CCRF-CEM) | GI50 (786-0) | GI50 (EKVX) | GI50 (T47D)
1 | CS(=O)(=O)N1CC(CI)c2ccc(O)cc21 (stereo not given) | 3.56 µM (inactive) | 3.44 µM (inactive) | 3.59 µM (inactive) | 1.89 µM (inactive) | 0.925 µM (active) | 3.36 µM (inactive) | 2.1 µM (inactive) | 2.84 µM (inactive) | 1.96 µM (inactive) | 2.6 µM (inactive) | 2.18 µM (inactive) | 2.54 µM (inactive) | 2.75 µM (inactive) | 3.4 µM (inactive) | 1.07 µM (active) | 0.807 µM (active) | 3.24 µM (inactive) | 3.74 µM (inactive) | 
2 | CCOC(=O)/C(C#N)=C(/NS(=O)(=O)c1cc(C)c(Cl)cc1[S-])[n+]1ccc(N(C)C)cc1 | > 100 µM (inactive) | > 100 µM (inactive) | > 100 µM (inactive) | > 100 µM (inactive) | > 100 µM (inactive) | > 100 µM (inactive) | > 100 µM (inactive) | > 100 µM (inactive) | > 100 µM (inactive) | > 100 µM (inactive) | 27.4 µM (inactive) |  | > 100 µM (inactive) | > 100 µM (inactive) | > 100 µM (inactive) | > 100 µM (inactive) | > 100 µM (inactive) | > 100 µM (inactive) | > 100 µM (inactive)
3 | Cc1csc2nc(-c3cc([N+](=O)[O-])c(Cl)cc3Cl)c(/C=N/N=C(N)N)n12 | 19 µM (inactive) | 16.2 µM (inactive) | 14.4 µM (inactive) | 17.1 µM (inactive) | 15.3 µM (inactive) | 17.8 µM (inactive) | 13.4 µM (inactive) | 14.8 µM (inactive) | 15.6 µM (inactive) | 16.4 µM (inactive) | 14.4 µM (inactive) |  | 15.3 µM (inactive) | 16.1 µM (inactive) | 15.9 µM (inactive) | 27.2 µM (inactive) | 19.5 µM (inactive) | 19.7 µM (inactive) | 16.9 µM (inactive)
4 | CCOC(=O)c1nc2cc(C(F)(F)F)ccc2nc1Nc1ccc(C(=O)OC)s1 | 48.6 µM (inactive) |  | 38.7 µM (inactive) | 47.2 µM (inactive) |  | 36.5 µM (inactive) | 19.4 µM (inactive) | 23.6 µM (inactive) | 31.3 µM (inactive) | 30.7 µM (inactive) | 17.9 µM (inactive) |  | 45.5 µM (inactive) | 37.1 µM (inactive) | 16.8 µM (inactive) | 30.6 µM (inactive) | 29.6 µM (inactive) | 45.9 µM (inactive) | 25.7 µM (inactive)
5 | NCCCNCc1c2ccccc2c(CNCCCN)c2ccccc12 | 19.2 µM (inactive) | 3.66 µM (inactive) | 19.2 µM (inactive) |  |  | 21.2 µM (inactive) | 14.9 µM (inactive) |  | 30.5 µM (inactive) |  | 11.5 µM (inactive) |  |  | 18.2 µM (inactive) | 15.2 µM (inactive) | 16.9 µM (inactive) | 5.9 µM (inactive) | 20.3 µM (inactive) | 
6 | CC(NC(=O)C(N)CC(=O)O)C(=O)OC12CC3CC(CC(C3)C1)C2 (stereo not given) | > 100 µM (inactive) | > 100 µM (inactive) | > 100 µM (inactive) | > 100 µM (inactive) | > 100 µM (inactive) | > 100 µM (inactive) | > 100 µM (inactive) | > 100 µM (inactive) | > 100 µM (inactive) | > 100 µM (inactive) | > 100 µM (inactive) |  | > 100 µM (inactive) | > 100 µM (inactive) | > 100 µM (inactive) | > 100 µM (inactive) | > 100 µM (inactive) | > 100 µM (inactive) | 
7 | N#Cc1ccc(-c2nc3cc(Cl)ccc3[nH]2)cc1 | 38.3 µM (inactive) | 51.1 µM (inactive) | 25.3 µM (inactive) |  | 63 µM (inactive) |  | > 100 µM (inactive) | > 100 µM (inactive) | 54.2 µM (inactive) | 40.2 µM (inactive) | > 100 µM (inactive) | 49.1 µM (inactive) | 30.4 µM (inactive) | 48.2 µM (inactive) | > 100 µM (inactive) | 41.2 µM (inactive) | > 100 µM (inactive) | 23.1 µM (inactive) | 35.6 µM (inactive)
8 | CCOC(=O)c1c(N)sc2c1C(C(=O)OCC)CCCC2 (stereo not given) | 88.9 µM (inactive) | 91 µM (inactive) | > 100 µM (inactive) |  | > 100 µM (inactive) | 57.9 µM (inactive) | 94.4 µM (inactive) | 46.8 µM (inactive) |  | 32.9 µM (inactive) | 75.5 µM (inactive) | 69.5 µM (inactive) |  | > 100 µM (inactive) | 17.3 µM (inactive) |  | > 100 µM (inactive) | 85.3 µM (inactive) | 22.5 µM (inactive)
9 | Cc1cc(C)c2c(n1)S(=O)(=O)N(CCCN1CCN(c3cccc(Cl)c3)CC1)C(C(=O)c1ccc(Br)cc1)=C2O | 22.1 µM (inactive) | 11.1 µM (inactive) | 24.7 µM (inactive) | 18.2 µM (inactive) | 25.7 µM (inactive) | 15.3 µM (inactive) | 20.5 µM (inactive) | 37.7 µM (inactive) | 6.9 µM (inactive) | 22 µM (inactive) | 20.7 µM (inactive) |  | 18.8 µM (inactive) | 25.4 µM (inactive) | 23.8 µM (inactive) | 19.9 µM (inactive) | 12.1 µM (inactive) | 19.3 µM (inactive) | 33.4 µM (inactive)
10 | COc1ccc2c(c1)-c1c(c3cc(OC)ccc3n1CCN1CCOCC1)CC2 | 23.9 µM (inactive) | 62.2 µM (inactive) | 22.6 µM (inactive) | 49.1 µM (inactive) | 29 µM (inactive) | 33.4 µM (inactive) | 55.2 µM (inactive) | 34.4 µM (inactive) | 44.2 µM (inactive) | 24.2 µM (inactive) | 24.4 µM (inactive) |  | 20.7 µM (inactive) | 13.5 µM (inactive) | 27.1 µM (inactive) | 11.5 µM (inactive) | 20.2 µM (inactive) |  | 44.4 µM (inactive)
11 | CCN1C[C@]2(C)CC[C@H](O)C34C1C(C[C@@H]32)[C@@]1(O)CC[C@H]2C[C@@H]4[C@@H]1[C@H]2O | > 100 µM (inactive) | > 100 µM (inactive) | > 100 µM (inactive) |  |  | > 100 µM (inactive) | > 100 µM (inactive) |  | > 100 µM (inactive) |  | > 100 µM (inactive) |  |  | > 100 µM (inactive) | > 100 µM (inactive) | > 100 µM (inactive) | > 100 µM (inactive) |  | 
12 | Nc1cc(N2CCCC2)nc(=O)n1Cc1ccccc1 | > 100 µM (inactive) | > 100 µM (inactive) | > 100 µM (inactive) | > 100 µM (inactive) | > 100 µM (inactive) | > 100 µM (inactive) | > 100 µM (inactive) | > 100 µM (inactive) | > 100 µM (inactive) | > 100 µM (inactive) | > 100 µM (inactive) |  | > 100 µM (inactive) | > 100 µM (inactive) |  | > 100 µM (inactive) | > 100 µM (inactive) | > 100 µM (inactive) | 
13 | CC1(C)CC(=O)c2c(nc(SSc3nc4c(c(-c5ccc(Br)cc5)c3C#N)C(=O)CC(C)(C)C4)c(C#N)c2-c2ccc(Br)cc2)C1 | > 10 µM (inactive) | > 10 µM (inactive) | > 10 µM (inactive) |  | > 10 µM (inactive) | > 10 µM (inactive) | > 10 µM (inactive) |  | > 10 µM (inactive) | > 10 µM (inactive) | > 10 µM (inactive) | > 10 µM (inactive) | > 10 µM (inactive) | > 10 µM (inactive) | > 10 µM (inactive) | > 10 µM (inactive) | > 10 µM (inactive) | > 10 µM (inactive) | > 10 µM (inactive)
14 | COCCCNC(=O)C1C(=O)N(CCCOC)C(=O)/C1=N\N (stereo not given) | > 100 µM (inactive) | > 100 µM (inactive) | > 100 µM (inactive) |  |  | > 100 µM (inactive) | > 100 µM (inactive) |  |  |  | > 100 µM (inactive) |  |  | > 100 µM (inactive) | > 100 µM (inactive) | > 100 µM (inactive) | > 100 µM (inactive) | > 100 µM (inactive) | 
15 | CC(=O)Nc1ccc2nc(-c3cccc(Cl)c3)cc(O)c2c1 | 54.7 µM (inactive) | 32.2 µM (inactive) | 4.83 µM (inactive) | 2.35 µM (inactive) | 3.77 µM (inactive) | > 100 µM (inactive) |  | 0.863 µM (active) |  | 4.72 µM (inactive) | 4.85 µM (inactive) |  | > 100 µM (inactive) | 11.2 µM (inactive) |  | 3.44 µM (inactive) | 13.4 µM (inactive) | > 100 µM (inactive) | 
16 | Brc1ccccc1C1SCc2nc3ccccc3n21 (stereo not given) | 26.1 µM (inactive) | 12.8 µM (inactive) | 15.9 µM (inactive) |  |  |  | 15.5 µM (inactive) |  | 20.7 µM (inactive) |  | 10.8 µM (inactive) |  |  | 23.5 µM (inactive) | 9.33 µM (inactive) | 21 µM (inactive) | 14 µM (inactive) | 17.3 µM (inactive) | 
17 | CCCCCCCCC(=O)N(C)C1C2CN3CCC(O2)C13 (stereo not given) | > 100 µM (inactive) | > 100 µM (inactive) | > 100 µM (inactive) |  |  | > 100 µM (inactive) | > 100 µM (inactive) |  | 48.9 µM (inactive) |  |  |  |  | > 100 µM (inactive) | > 100 µM (inactive) | > 100 µM (inactive) | > 100 µM (inactive) | > 100 µM (inactive) | 
18 | C/C(C=O)=N\Nc1cc(C)c2ccccc2n1 | 20.6 µM (inactive) | 16.3 µM (inactive) | 15 µM (inactive) | 16 µM (inactive) | 12.5 µM (inactive) | 17.6 µM (inactive) | 15.2 µM (inactive) | 15.1 µM (inactive) | 16.9 µM (inactive) | 13.7 µM (inactive) | 15.1 µM (inactive) |  | 15.7 µM (inactive) | 16.7 µM (inactive) | 17.5 µM (inactive) | 12 µM (inactive) | 14.2 µM (inactive) | 16.9 µM (inactive) | 15.8 µM (inactive)
